From patent US11001802B2, “Surface of a vessel with polystyrene, nitrogen, oxygen and a static sessile contact angle for attachment and cultivation of cells” (Nunc A/S, priority 2008, dated 2021)

Key:
[1] = test system: human ES cell line H9; assay: Attachment and colony formation of H9 human ES cells on surface modified plates with Rho kinase inhibitors (crystal violet, image analysis); type: cell-based; conditions: H9 on surface modified plates 2, 3, 4 and 13; crystal violet; Y-27632 at 10 μM
Description: Human ES cells of the line H9, at passage 40 were maintained in MEF conditioned media on Nunclon Delta™ plates treated with a 1:30 dilution of growth factor reduced Matrigel™, prior to study. Cells were dissociated from the surface for passage by 1 mg/ml collagenase dissociation or by manual scraping.
These cells were then seeded onto surface modified plates 2, 3, 4 and 13 (12-well format) in the presence of increasing amounts one of the following Rho Kinase inhibitors: Y-27632 (from Sigma, St. Louis, Mo. or EMD, San Diego, Calif.), Fasudil (Sigma), or Hydroxyfasudil (Sigma), and maintained for 3 days, each day replacing the media and compound. At the end of day three, media was removed and the plates were stained with Crystal Violet (0.5% in water) to visualize colonies.
It was attempted to determine the optimal dose of Y-27632 to promote cell binding, by treating cells with a range of plating concentrations of Y-27632 for the first day of culture. After the first day in culture cells were treated on subsequent days with a 10 μM concentration of Y-27632. It was observed that the maximal concentration to stimulate attachment and growth of ES cells was 10 μM (FIG. 12) and that this occurred on surface modified plates 2, 3, 4, 13 and CellBIND™ (Corning, Corning, N.Y.).
The effect of treating the cells continuously with a single dose of Y-27632 on attachment and growth was also tested. The cells were dosed with 0, 1, 4, or 10 μM Y-27632 for 4 days. Some binding was observed on surface modified plates without treatment (0 μM), however the optimal concentration to stimulate attachment and growth of ES cells was 10 μM Y-27632 (Table 4) on surface modified plates 2, 3, 4, 13.

[2] = test system: HEK293 cells; assay: HEK293 attachment and growth, culture confluence by IncuCyte Plus (Examples 20, 21); type: cell-based, human
Description: HEK293 cells were maintained in EMEM (Lonza) containing 10% FBS (Lonza). Cells were passaged at 70-80% confluence using Trypsin/EDTA for dissociation, and seeded at c 2.0×10^4 cells/cm^2 in 75-cm^2 flasks with Nunclon Delta™ surface (Thermo Fisher Scientific, Roskilde, Denmark).
EMEM (500 μl) supplemented with 10% FBS containing 1.0, 5.0, 10, 15 or 20 μM Y-27632 (Sigma Chemical Co.), or 0.4, 1.2, 1.6, 2.4 or 2.8 μM H-1152 (Calbiochem, EMD Chemicals Inc., Darmstadt, Germany) was dispensed in Multidish 24-well plates with either Surface 4 or a non-treated (but gamma irradiated; 25 kGy) polystyrene surface. Another 500 μl of EMEM supplemented with 10% FBS and containing HEK293 cells were added to the wells (2.0×10^4 cells/cm^2). The cultures were placed in an IncuCyte™ Plus (Essen Instruments, Michigan, USA) and incubated at 37° C. in a humidified atmosphere of 5% CO2 in air. The IncuCyte™ Plus is an automated imaging platform, configured to fit inside a CO2 incubator, and designed to provide kinetic, non-invasive live cell imaging by acquiring phase contrast images of the cells at user-defined times and locations within the cultures. The primary metric of the instrument is culture confluence, that is, the fraction of the surface that is covered by cells. The HEK293 cells were incubated for 72 hours without manipulations, and images were collected every two hours at 9 positions in triplicate cultures. Culture confluence was determined using the IncuCyte™ Plus software (v. 3.4.1.25966).
EMEM (1.0 ml) supplemented with 10% FBS containing 0.4, 0.8, 1.2, 1.6, 2.0, 2.4 or 2.8 μM H-1152 was dispensed in Multidish 12-well plates with Surface 4. Another 1.0 ml of EMEM supplemented with […] and containing HEK293 cells were added to the wells (4.0×10^4 cells/cm^2). The cultures were placed in an IncuCyte™ Plus, and incubated at 37° C. in a humidified atmosphere of 5% CO2 in air for 42 hours (images were collected every 6 hours). One ml of culture medium was then removed by pipetting, and 1.0 ml EMEM supplemented with 10% FBS containing 0.2, 0.4, 0.6, 0.8, 1.0, 1.2 and 1.4 μM H-1152 was added. The cultures were placed in the IncuCyte™ Plus again, and images were collected every hour over the following 25 hours. Images were collected at 9 positions in triplicate cultures, and culture confluence was determined using the IncuCyte™ Plus software. Images from the IncuCyte™ Plus collected at specific positions in HEK293 cell cultures grown in the absence or presence of H-1152 (0.6 μM) was retrieved and presented as phase-contrast micrographs for the comparison of HEK293 culture morphology at the following time points: start of incubation (0 hours), just before medium change (42 hours), 1 hour after the medium change (43 hours), and, finally, after 52 hours of incubation.

O=c1[nH]ccc2c(S(=O)(=O)N3CCCNCC3)cccc12 [Hydroxyfasudil]
attachment of ES cell colonies by day three [1]: some colonies could be observed to attach and grow

O=S(=O)(c1cccc2cnccc12)N1CCCNCC1 [Fasudil]
attachment of ES cell colonies by day three [1]: some colonies could be observed to attach and grow

Cc1cncc2cccc(S(=O)(=O)N3CCCNC[C@@H]3C)c12 [Surface H-1152, H-1152]
effect of change of 50% of the medium after 42 hours on culture confluence ([2]; Surface 4, 0.2 μM or 0.4 μM H-1152): significant reduction in culture confluence | effect of change of 50% of the medium after 42 hours on culture confluence ([2]; Surface 4, 0.6 μM, 0.8 μM or 1.4 μM H-1152): minimal | attachment and growth of HEK293 cells ([2]; Surface 4, increasing concentration): enhances attachment and growth | growth and attachment of HEK293 cells ([2]; non-treated polystyrene surface, 10 μM Y-27632, 0.6-1.2 μM H-1152): slightly enhanced
